Data: PubChem BioAssay (NCI)
“And” between values parts separate entries of the source, which are not always exact repeats. Identical values can stand only once.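 Following 48 hours of exposure in 96-well plates, responses at five concentrations were used to interpolate endpoints linearly. Here, GI50 denotes the concentration required for 50% inhibition of growth. TGI marks complete inhibition of growth.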

system: HCT-116 colon; assay: NCI-60 cell line screen, 48 h

Row | Compound | GI50 | TGI
1 | OC(c1cccc(C(F)(F)F)c1)c1cnccc1NC1CCCCCC1 (centres undefined) | 1.65 µM | 3.18 µM
2 | N#Cc1c(O)c2c(c(O)c1C#N)C(=O)c1ccccc1C2=O | 1.3 µM | 2.94 µM
3 | O=C(O/N=C1/CCC/C1=C\c1ccccc1)c1ccc([N+](=O)[O-])cc1 | – | > 100 µM
4 | O=C1CSC(N2CCN(c3cccc(Cl)c3)CC2)=N1 | > 100 µM | > 100 µM
5 | CC(=O)/C=C/c1cccc(N=S)c1 | – | 2.72 µM
6 | C1CN2N3CCCC23C1 (centres undefined) | – | > 100 µM
7 | CN(C)CCNc1nc2ccccc2c2[nH]c3ccccc3c12 | 0.106 µM | 2.25 µM
8 | O=C(O)CCCc1ccc(N(CCCl)CCCl)cc1 | 23 µM and 144 µM | 63 µM and 389 µM and 328 µM
9 | CN(C)S(=O)(=O)Nc1ccccn1 | – | > 100 µM
10 | COc1cc2c(c(OC)c1OC)-c1ccc(NCc3ccccc3)c(=O)cc1[C@@H](NC(C)=O)CC2 | 0.419 µM | > 100 µM

system: SR leukemia; assay: NCI-60 cell line screen, 48 h

Row | Compound | GI50 [µM] | TGI [µM]
11 | OC(c1cccc(C(F)(F)F)c1)c1cnccc1NC1CCCCCC1 (centres undefined) | 2.2 | 6.51
12 | N#Cc1c(O)c2c(c(O)c1C#N)C(=O)c1ccccc1C2=O | 1.82 | 5.35
13 | O=C(O/N=C1/CCC/C1=C\c1ccccc1)c1ccc([N+](=O)[O-])cc1 | – | > 100
14 | O=C1CSC(N2CCN(c3cccc(Cl)c3)CC2)=N1 | > 100 | > 100
15 | CC(=O)/C=C/c1cccc(N=S)c1 | – | > 100
16 | C1CN2N3CCCC23C1 (centres undefined) | – | > 100
17 | CN(C)CCNc1nc2ccccc2c2[nH]c3ccccc3c12 | 0.341 | 1.31
18 | O=C(O)CCCc1ccc(N(CCCl)CCCl)cc1 | 0.922 | –
19 | CN(C)S(=O)(=O)Nc1ccccn1 | – | > 100
20 | COc1cc2c(c(OC)c1OC)-c1ccc(NCc3ccccc3)c(=O)cc1[C@@H](NC(C)=O)CC2 | 0.436 | > 44.3

system: A498 renal; assay: NCI-60 cell line screen, 48 h

Row | Compound | GI50 [µM] | TGI
21 | OC(c1cccc(C(F)(F)F)c1)c1cnccc1NC1CCCCCC1 (centres undefined) | 3.68 | 15.9 µM
22 | N#Cc1c(O)c2c(c(O)c1C#N)C(=O)c1ccccc1C2=O | 1.39 | 16.4 µM
23 | O=C(O/N=C1/CCC/C1=C\c1ccccc1)c1ccc([N+](=O)[O-])cc1 | – | > 100 µM
24 | O=C1CSC(N2CCN(c3cccc(Cl)c3)CC2)=N1 | > 100 | > 100 µM
25 | CC(=O)/C=C/c1cccc(N=S)c1 | – | 78.7 µM
26 | C1CN2N3CCCC23C1 (centres undefined) | – | > 100 µM
27 | CN(C)CCNc1nc2ccccc2c2[nH]c3ccccc3c12 | 5.32 | 11 µM
28 | O=C(O)CCCc1ccc(N(CCCl)CCCl)cc1 | 28.3 | 48.4 µM and 302 µM
29 | CN(C)S(=O)(=O)Nc1ccccn1 | – | > 100 µM
30 | COc1cc2c(c(OC)c1OC)-c1ccc(NCc3ccccc3)c(=O)cc1[C@@H](NC(C)=O)CC2 | 0.248 | 0.771 µM

system: HT29 colon; assay: NCI-60 cell line screen, 48 h

Row | Compound | GI50 | TGI
31 | OC(c1cccc(C(F)(F)F)c1)c1cnccc1NC1CCCCCC1 (centres undefined) | 1.78 µM | 3.72 µM
32 | N#Cc1c(O)c2c(c(O)c1C#N)C(=O)c1ccccc1C2=O | 0.563 µM | 3.96 µM
33 | O=C(O/N=C1/CCC/C1=C\c1ccccc1)c1ccc([N+](=O)[O-])cc1 | – | > 100 µM
34 | O=C1CSC(N2CCN(c3cccc(Cl)c3)CC2)=N1 | 46 µM | > 100 µM
35 | CC(=O)/C=C/c1cccc(N=S)c1 | – | 19.5 µM
36 | C1CN2N3CCCC23C1 (centres undefined) | – | > 100 µM
37 | CN(C)CCNc1nc2ccccc2c2[nH]c3ccccc3c12 | 0.188 µM | > 77.1 µM
38 | O=C(O)CCCc1ccc(N(CCCl)CCCl)cc1 | 19.9 µM and 173 µM | 59.3 µM and 486 µM and 518 µM
39 | CN(C)S(=O)(=O)Nc1ccccn1 | – | > 100 µM
40 | COc1cc2c(c(OC)c1OC)-c1ccc(NCc3ccccc3)c(=O)cc1[C@@H](NC(C)=O)CC2 | 0.373 µM | 11.9 µM

system: SF-295 CNS; assay: NCI-60 cell line screen, 48 h

Row | Compound | GI50 | TGI [µM]
41 | OC(c1cccc(C(F)(F)F)c1)c1cnccc1NC1CCCCCC1 (centres undefined) | 1.52 µM | 3.06
42 | N#Cc1c(O)c2c(c(O)c1C#N)C(=O)c1ccccc1C2=O | 1.88 µM | 14.2
43 | O=C(O/N=C1/CCC/C1=C\c1ccccc1)c1ccc([N+](=O)[O-])cc1 | – | > 100
44 | O=C1CSC(N2CCN(c3cccc(Cl)c3)CC2)=N1 | > 100 µM | > 100
45 | CC(=O)/C=C/c1cccc(N=S)c1 | – | 54.3
46 | C1CN2N3CCCC23C1 (centres undefined) | – | > 100
47 | CN(C)CCNc1nc2ccccc2c2[nH]c3ccccc3c12 | 0.439 µM | 2.91
48 | O=C(O)CCCc1ccc(N(CCCl)CCCl)cc1 | 11.7 µM and 64.6 µM | –
49 | CN(C)S(=O)(=O)Nc1ccccn1 | – | > 100
50 | COc1cc2c(c(OC)c1OC)-c1ccc(NCc3ccccc3)c(=O)cc1[C@@H](NC(C)=O)CC2 | 0.617 µM | 18.3

system: NCI-H522 lung; assay: NCI-60 cell line screen, 48 h

Row | Compound | GI50 [µM] | TGI
51 | OC(c1cccc(C(F)(F)F)c1)c1cnccc1NC1CCCCCC1 (centres undefined) | 1.65 | 3.56 µM
52 | N#Cc1c(O)c2c(c(O)c1C#N)C(=O)c1ccccc1C2=O | 2 | 5.92 µM
53 | O=C(O/N=C1/CCC/C1=C\c1ccccc1)c1ccc([N+](=O)[O-])cc1 | – | > 100 µM
54 | O=C1CSC(N2CCN(c3cccc(Cl)c3)CC2)=N1 | > 100 | > 100 µM
55 | CC(=O)/C=C/c1cccc(N=S)c1 | – | > 53.7 µM
56 | C1CN2N3CCCC23C1 (centres undefined) | – | > 100 µM
57 | CN(C)CCNc1nc2ccccc2c2[nH]c3ccccc3c12 | 1.33 | –
58 | O=C(O)CCCc1ccc(N(CCCl)CCCl)cc1 | – | 13.1 µM and 100 µM and 99.4 µM
59 | CN(C)S(=O)(=O)Nc1ccccn1 | – | > 100 µM
60 | COc1cc2c(c(OC)c1OC)-c1ccc(NCc3ccccc3)c(=O)cc1[C@@H](NC(C)=O)CC2 | 0.327 | 1.52 µM

system: A549 NSCLC; assay: NCI-60 cell line screen, 48 h

Row | Compound | GI50 | TGI
61 | OC(c1cccc(C(F)(F)F)c1)c1cnccc1NC1CCCCCC1 (centres undefined) | 3.58 µM | 11.4 µM
62 | N#Cc1c(O)c2c(c(O)c1C#N)C(=O)c1ccccc1C2=O | 1.62 µM | 8.02 µM
63 | O=C(O/N=C1/CCC/C1=C\c1ccccc1)c1ccc([N+](=O)[O-])cc1 | – | > 100 µM
64 | O=C1CSC(N2CCN(c3cccc(Cl)c3)CC2)=N1 | > 100 µM | > 100 µM
65 | CC(=O)/C=C/c1cccc(N=S)c1 | – | > 59.1 µM
66 | C1CN2N3CCCC23C1 (centres undefined) | – | > 100 µM
67 | CN(C)CCNc1nc2ccccc2c2[nH]c3ccccc3c12 | 0.37 µM | 10.1 µM
68 | O=C(O)CCCc1ccc(N(CCCl)CCCl)cc1 | 12.7 µM and > 89.5 µM | > 92.2 µM and 633 µM and 621 µM
69 | CN(C)S(=O)(=O)Nc1ccccn1 | – | > 100 µM
70 | COc1cc2c(c(OC)c1OC)-c1ccc(NCc3ccccc3)c(=O)cc1[C@@H](NC(C)=O)CC2 | 0.453 µM | > 100 µM

system: UACC-62 melanoma; assay: NCI-60 cell line screen, 48 h

Row | Compound | GI50 [µM] | TGI
71 | OC(c1cccc(C(F)(F)F)c1)c1cnccc1NC1CCCCCC1 (centres undefined) | 1.5 | 3.06 µM
72 | N#Cc1c(O)c2c(c(O)c1C#N)C(=O)c1ccccc1C2=O | 1.05 | 2.85 µM
73 | O=C(O/N=C1/CCC/C1=C\c1ccccc1)c1ccc([N+](=O)[O-])cc1 | – | > 100 µM
74 | O=C1CSC(N2CCN(c3cccc(Cl)c3)CC2)=N1 | > 100 | > 100 µM
75 | CC(=O)/C=C/c1cccc(N=S)c1 | – | > 57.2 µM
76 | C1CN2N3CCCC23C1 (centres undefined) | – | > 100 µM
77 | CN(C)CCNc1nc2ccccc2c2[nH]c3ccccc3c12 | 1.36 | 3.55 µM
78 | O=C(O)CCCc1ccc(N(CCCl)CCCl)cc1 | – | 23.1 µM and 106 µM and 202 µM
79 | CN(C)S(=O)(=O)Nc1ccccn1 | – | > 100 µM
80 | COc1cc2c(c(OC)c1OC)-c1ccc(NCc3ccccc3)c(=O)cc1[C@@H](NC(C)=O)CC2 | 0.526 | 22.4 µM

system: LOX IMVI melanoma; assay: NCI-60 cell line screen, 48 h

Row | Compound | GI50 [µM] | TGI
81 | OC(c1cccc(C(F)(F)F)c1)c1cnccc1NC1CCCCCC1 (centres undefined) | 1.59 | 2.98 µM
82 | N#Cc1c(O)c2c(c(O)c1C#N)C(=O)c1ccccc1C2=O | 0.349 | 4.29 µM
83 | O=C(O/N=C1/CCC/C1=C\c1ccccc1)c1ccc([N+](=O)[O-])cc1 | – | > 100 µM
84 | O=C1CSC(N2CCN(c3cccc(Cl)c3)CC2)=N1 | > 100 | > 100 µM
85 | CC(=O)/C=C/c1cccc(N=S)c1 | – | 5.92 µM
86 | C1CN2N3CCCC23C1 (centres undefined) | – | > 100 µM
87 | CN(C)CCNc1nc2ccccc2c2[nH]c3ccccc3c12 | 0.301 | 1.11 µM
88 | O=C(O)CCCc1ccc(N(CCCl)CCCl)cc1 | – | 31.9 µM and 183 µM and 265 µM
89 | CN(C)S(=O)(=O)Nc1ccccn1 | – | > 100 µM
90 | COc1cc2c(c(OC)c1OC)-c1ccc(NCc3ccccc3)c(=O)cc1[C@@H](NC(C)=O)CC2 | 0.444 | 14.9 µM

system: CAKI-1 renal; assay: NCI-60 cell line screen, 48 h

Row | Compound | GI50 [µM] | TGI
91 | OC(c1cccc(C(F)(F)F)c1)c1cnccc1NC1CCCCCC1 (centres undefined) | 1.55 | 3.85 µM
92 | N#Cc1c(O)c2c(c(O)c1C#N)C(=O)c1ccccc1C2=O | 2.65 | 8.3 µM
93 | O=C(O/N=C1/CCC/C1=C\c1ccccc1)c1ccc([N+](=O)[O-])cc1 | – | > 100 µM
94 | O=C1CSC(N2CCN(c3cccc(Cl)c3)CC2)=N1 | > 100 | > 100 µM
95 | CC(=O)/C=C/c1cccc(N=S)c1 | – | > 100 µM
96 | C1CN2N3CCCC23C1 (centres undefined) | – | > 100 µM
97 | CN(C)CCNc1nc2ccccc2c2[nH]c3ccccc3c12 | 0.344 | 1.76 µM
98 | O=C(O)CCCc1ccc(N(CCCl)CCCl)cc1 | 5.86 | 28.1 µM and 146 µM and 247 µM
99 | CN(C)S(=O)(=O)Nc1ccccn1 | – | > 100 µM
100 | COc1cc2c(c(OC)c1OC)-c1ccc(NCc3ccccc3)c(=O)cc1[C@@H](NC(C)=O)CC2 | 3.23 | 45.8 µM
